Reference: PMC7496931, “Activation of Sirtuin 2 Inhibitors Employing Photoswitchable Geometry and Aqueous Solubility” (Chemmedchem, 2020)
One block for each molecule: values may come before it.

Biological target: T1, Sirt2 (Homo sapiens, UniProt Q8IXJ6)
T1 construct: Expression and purification of Sirt1_133−747, Sirt2_56−356, and Sirt3_118−395 was carried out as described previously; made in house
T1 sequence (Q8IXJ6 56-356): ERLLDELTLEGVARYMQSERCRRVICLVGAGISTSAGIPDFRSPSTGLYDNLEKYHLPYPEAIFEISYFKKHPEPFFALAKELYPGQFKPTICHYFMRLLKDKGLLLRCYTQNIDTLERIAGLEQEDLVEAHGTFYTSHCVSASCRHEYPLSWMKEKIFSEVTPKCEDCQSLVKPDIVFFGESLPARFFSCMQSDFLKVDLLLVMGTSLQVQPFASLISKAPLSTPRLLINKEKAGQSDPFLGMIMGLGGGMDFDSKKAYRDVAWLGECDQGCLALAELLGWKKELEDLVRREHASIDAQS
Assay: FP-based binding assay (competition with fluorescently labelled SirReal probe)
Set-up: key to Sirt2 inhibition FP-Assay (class): n.i. = no inhibition detected
Excerpt: This conformational change is also observed upon binding of numerous other compounds as myristoylated substrates, for instance.23 A recently developed fluorescence polarization (FP)‐based binding assay was utilized to determine whether our compounds are able to prevent binding of a fluorescently labelled SirReal to the catalytic core of Sirt2.7 Serendipitously, competition with the fluorescent probe could be confirmed for 7 f (Table S3). […] Therefore, this scaffold seemed to be a promising structure for further derivatization. […]
yielding the percentage substrate conversion. Comparison of the determined substrate conversion with a no-inhibition DMSO control yields the percentage inhibition at the respective […]
For determination of IC50, inhibitory activity of the respective compound was determined at 8 to 10 distinct concentrations. The measured values were analysed by a non-linear fit to the dose-response curve using a four parameter logistic model (Figure S6):
Figure S6: Non-linear regression of the dose-response curves of compounds 15c and 15f at the thermal equilibrium (∆, black) and after 5 minutes of 365 nm irradiation (red). […]
before 5 µL of the solution of 21 (40 nM final assay concentration) were added. After further 30 min of incubation at 37 °C the fluorescence intensities were recorded with an EnVisionTM plate reader (PerkinElmer) with the following settings: optical module – BODIPY TMR FP, excitation filter – FP 531 nm, emission filter 1 – FP p-pol 595 nm, emission filter 2 – FP s-pol 595 nm. Fluorescence polarization (P) values were determined as […] (mP), […]
where Is/IP are the fluorescence intensities measured in the s- and the p-plane respectively, both blank corrected. […] Inhibition was calculated from fluorescence polarization in relation to the maximal polarization and minimal […]
Table S3: Compounds 7c, 7f and 9a examined in the FP-based binding assay and in the ZMAL activity assay. Inhibition of Sirt2 in the FP-based binding assay indicates displacement of the fluorescence-labelled SirReal probe and implies a similar binding mode. […]

Sirt2 inhibition FP-Assay (class): n.i.
Structure (SMILES): NC(=O)c1cncc(/N=N/c2c(O)ccc3ccccc23)c1 [7 c]

inhibition at 10 µM (@ 10 µM, read-out: Sirt2 inhibition FP-Assay, % inhibition of binding of the fluorescent probe): 46%
Structure (SMILES): Cc1cc(/N=N/c2cncc(C(N)=O)c2)cc(C)c1N [7 f]

inhibition at 100 µM (@ 100 µM, read-out: Sirt2 inhibition FP-Assay, % inhibition of binding of the fluorescent probe): 69%
Structure (SMILES): CC(=O)Nc1c(C)cc(/N=N/c2cncc(C(N)=O)c2)cc1C [9 a]
